T/C data for 16 compounds are collected here from PubChem BioAssay AID248 (DTP/NCI, 2004).

Inconclusive results and toxic doses are left out.

This test concerns L1210 leukemia ip in BDF1 mice, survival T/C. The experiment in a line: NCI In Vivo Anticancer Drug Screen. Data for tumor model L1210 Leukemia (intraperitoneal) in B6D2F1 (BDF1) mice. To be noted: endpoint: mean survival time, higher = longer survival. Summed up:
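Mice bearing the transplanted tumor received compound or vehicle. Survival of the treated group was divided by that of the vehicle-treated control group to give the ratio.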

[1] abbreviates: dose: 100.0 mg/kg/injection, schedule: Q04DX002 (ip), vehicle: saline with Tween-80.
Setting [2] is: dose: 200.0 mg/kg/injection, schedule: Q04DX002 (ip), vehicle: saline with Tween-80.
The mark [3] stands for this setting: dose: 400.0 mg/kg/injection, schedule: Q04DX002 (ip), vehicle: saline with Tween-80.
The mark [4] stands for this setting: dose: 100.0 mg/kg/injection, schedule: Q01DX001 (ip), vehicle: saline.
Setting [5] is: dose: 200.0 mg/kg/injection, schedule: Q01DX001 (ip), vehicle: saline.
Setting [6] is: dose: 400.0 mg/kg/injection, schedule: Q01DX001 (ip), vehicle: saline.
[7] abbreviates: dose: 100.0 mg/kg/injection, schedule: Q01DX009 (ip), vehicle: Klucel (hydroxypropylcellulose) (HPC).
Where [8] appears, read: dose: 200.0 mg/kg/injection, schedule: Q01DX009 (ip), vehicle: Klucel (hydroxypropylcellulose) (HPC).
[9] abbreviates: dose: 400.0 mg/kg/injection, schedule: Q01DX009 (ip), vehicle: Klucel (hydroxypropylcellulose) (HPC).
Setting [10] is: dose: 100.0 mg/kg/injection, schedule: Q04DX003 (ip), vehicle: saline with Tween-80.
Where [11] appears, read: dose: 200.0 mg/kg/injection, schedule: Q04DX003 (ip), vehicle: saline with Tween-80.
The mark [12] stands for this setting: dose: 400.0 mg/kg/injection, schedule: Q04DX003 (ip), vehicle: saline with Tween-80.

As to `O=[N+]([O-])c1cc2cc(Br)ccc2o1`, the T/C runs as follows: (dose: 12.5 mg/kg/injection, schedule: Q04DX002 (ip), vehicle: Klucel (hydroxypropylcellulose) (HPC)) 102 % of control; (dose: 25.0 mg/kg/injection, schedule: Q04DX002 (ip), vehicle: Klucel (hydroxypropylcellulose) (HPC)) 106 % of control; (dose: 50.0 mg/kg/injection, schedule: Q04DX002 (ip), vehicle: Klucel (hydroxypropylcellulose) (HPC)) 97 % of control.

Turning to `CCC(C)OC(c1ccc2c(c1)OCO2)C(C)Br` (centres undefined), the T/C was 107 % of control under setting [1], 93 % of control under setting [2] and 96 % of control under setting [3].

Turning to `O=C(CCCC(=O)NNC(=O)Nc1ccccc1Cl)NNC(=O)Nc1ccccc1Cl`, the T/C (dose: 50.0 mg/kg/injection, schedule: Q01DX001 (ip), vehicle: saline) was 102 % of control; the T/C under setting [4] was 96 % of control; the T/C under setting [5] is 100 % of control; the T/C under setting [6] is 93 % of control.

In the case of `CCOC(=O)C(=O)C1CCNC1=O` (centres undefined), the T/C was 92 % of control (dose: 12.5 mg/kg/injection, schedule: Q04DX003 (ip), vehicle: saline with Tween-80); 95 % of control (dose: 25.0 mg/kg/injection, schedule: Q04DX003 (ip), vehicle: saline with Tween-80); 97 % of control (dose: 50.0 mg/kg/injection, schedule: Q04DX003 (ip), vehicle: saline with Tween-80).

Take `O=S1(=O)N=C(Cl)c2ccccc21`: the T/C is 105 % of control (dose: 50.0 mg/kg/injection, schedule: Q04DX003 (ip), vehicle: Klucel (hydroxypropylcellulose) (HPC)); 108 % of control (dose: 100.0 mg/kg/injection, schedule: Q04DX003 (ip), vehicle: Klucel (hydroxypropylcellulose) (HPC)); 97 % of control (dose: 200.0 mg/kg/injection, schedule: Q04DX003 (ip), vehicle: Klucel (hydroxypropylcellulose) (HPC)).

Take `O=C(O)c1c(CN2CCOCC2)c(O)c(O)c(O)c1CN1CCOCC1`: the T/C under setting [4] was 103 % of control, the T/C under setting [5] is 107 % of control and the T/C under setting [6] was 103 % of control.

For `CCOC(C(=O)N(C)CCN(C)CCc1ccccc1)(c1ccccc1)c1ccccc1`, the T/C by setting is: under setting [4], 105 % of control; under setting [5], 94 % of control.

As for `COc1ccc(COC(=O)Nc2ccccc2Cl)cc1`, the T/C under setting [7] is 91 % of control; the T/C (dose: 100.0 mg/kg/injection, schedule: Q04DX002 (ip), vehicle: Klucel (hydroxypropylcellulose) (HPC)) was 95 % of control; the T/C under setting [8] was 96 % of control; the T/C under setting [9] was 104 % of control; the T/C (dose: 400.0 mg/kg/injection, schedule: Q04DX002 (ip), vehicle: Klucel (hydroxypropylcellulose) (HPC)) is 95 % of control.

Regarding `O/N=C1\CC(c2ccccc2)(c2ccccc2)c2cc(-c3ccccc3)c(-c3ccccc3)cc21`, the T/C is, setting by setting: (dose: 50.0 mg/kg/injection, schedule: Q01DX009 (ip), vehicle: saline with Tween-80) 97 % of control; (dose: 100.0 mg/kg/injection, schedule: Q01DX009 (ip), vehicle: saline with Tween-80) 104 % of control; (dose: 200.0 mg/kg/injection, schedule: Q01DX009 (ip), vehicle: saline with Tween-80) 97 % of control.

Consider `COc1ccc(C(SCC(N)C(=O)O)(c2ccccc2)c2ccccc2)cc1` (centres undefined), for which the T/C was 122 % of control (dose: 7.4 mg/kg/injection, schedule: Q01DX009 (ip), vehicle: saline); 166 % of control (dose: 25.0 mg/kg/injection, schedule: Q01DX009 (ip), vehicle: saline); 183 % of control (dose: 50.0 mg/kg/injection, schedule: Q01DX009 (ip), vehicle: saline); 100 % of control (dose: 100.0 mg/kg/injection, schedule: Q01DX009 (ip), vehicle: saline).

Regarding `COc1cc2c(c(Cl)c1N)-c1ccccc1C2`, the T/C is 104 % of control (dose: 177.0 mg/kg/injection, schedule: Q01DX001 (ip), vehicle: carboxymethylcellulose (CMC)) and 98 % of control (dose: 266.0 mg/kg/injection, schedule: Q01DX001 (ip), vehicle: carboxymethylcellulose (CMC)).

Consider `O=C1NC(=O)C2CCCCC12` (centres undefined), for which the T/C by setting is: under setting [1], 90 % of control; under setting [10], 96 % of control; under setting [2], 121 % of control; under setting [11], 104 % of control; under setting [3], 107 % of control; under setting [12], 104 % of control.

`CCCOP(=O)(OCCC)C(OC(=O)C(C)(C)C)=C(C)C`: the T/C under setting [10] was 92 % of control and the T/C under setting [11] is 96 % of control.

As to `Cc1ccc(NC(=S)N2CCOCC2)cc1C`, the T/C was 94 % of control under setting [7], 100 % of control under setting [8] and 94 % of control under setting [9].

Regarding `CC1(N)COP(=O)(Nc2ccccc2)OC1` (centres undefined), the T/C is 101 % of control (dose: 44.4 mg/kg/injection, schedule: Q01DX001 (ip), vehicle: carboxymethylcellulose (CMC)); 101 % of control (dose: 66.7 mg/kg/injection, schedule: Q01DX001 (ip), vehicle: carboxymethylcellulose (CMC)); 107 % of control (dose: 150.0 mg/kg/injection, schedule: Q01DX001 (ip), vehicle: carboxymethylcellulose (CMC)); 92 % of control (dose: 200.0 mg/kg/injection, schedule: Q01DX001 (ip), vehicle: carboxymethylcellulose (CMC)); 103 % of control (dose: 400.0 mg/kg/injection, schedule: Q01DX001 (ip), vehicle: carboxymethylcellulose (CMC)).

For `CC(C)=C(Cl)C(C)(C)C(=O)O`, the T/C runs as follows: under setting [10], 103 % of control; under setting [11], 101 % of control; under setting [12], 97 % of control.
